Experimental findings from patent publication US20240058464A1 (Fortis Therapeutics, Inc., priority 2021, published 2024) are described below.

Where two headings read alike, the source gives them in different places.

The test system of assay [1] is CD46 expression.
Experimental: (§1) Gene expression was determined by RNA-sequencing from formalin-fixed, paraffin-embedded (FFPE) tumor samples using an exome capture-based protocol. Briefly, total nucleic acid was extracted from FFPE solid tumor samples. The RNA sample was treated with DNAse and reverse transcribed. cDNA was captured with a custom probe set targeting the human exome. A library was prepared from the captured cDNA and sequenced on the Illumina platform. Sequence read were aligned to GRCh37 using Kallisto and normalized to quantify gene expression. Specifically, transcript counts were corrected for GC content and length using quantile normalization and adjusted for sequencing depth via a size factor method. Normalized counts in protein coding transcripts covered by the exome panel were then summed to obtain gene-level counts. Subsequent expression analyses were performed on log2-transformed counts.
In assay [2] the test system is CD46 expression. Briefly: CD46 expression by RNA-sequencing in unpaired pre-treatment and post-treatment tumor biopsies. The conditions noted are these: for CD46 expression Post: post-treatment biopsies. The assay is classed as in vivo, human.
Assay [3] concerns CD46 expression. Briefly: CD46 expression by RNA-sequencing in paired tumor biopsies before and after therapy.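 As to all read-outs here: FFPE human tumor biopsies, exome-capture RNA-seq, reads aligned to GRCh37, counts normalized for GC content, length and depth, summed per gene, log2-transformed, samples paired before versus after therapy.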 The settings on record: paired biopsies; for CD46 expression, Post-Treatment Biopsy / CD46 expression, Pre-Treatment Biopsy: RNA-seq log2-transformed counts.
Experimental: as §1
Where [4] appears, read: Breast Cancer, Post minus Pre, unpaired biopsies, log2-transformed counts.
Where [5] appears, read: Breast Cancer, post- vs pre-treatment unpaired biopsies.
Setting [6] is: Breast Cancer, unpaired, RNA-seq log2-transformed normalized counts.
[7] abbreviates: Colorectal Cancer, Post minus Pre, unpaired biopsies, log2-transformed counts.
Where [8] appears, read: Colorectal Cancer, post- vs pre-treatment unpaired biopsies.
Where [9] appears, read: Colorectal Cancer, unpaired, RNA-seq log2-transformed normalized counts.
Where [10] appears, read: Non-Small Cell Lung Cancer, Post minus Pre, unpaired biopsies, log2-transformed counts.
The mark [11] stands for this setting: Non-Small Cell Lung Cancer, post- vs pre-treatment unpaired biopsies.
Where [12] appears, read: Non-Small Cell Lung Cancer, unpaired, RNA-seq log2-transformed normalized counts.
Setting [13] is: Clear Cell Renal Cell Carcinoma, Post minus Pre, unpaired biopsies, log2-transformed counts.
Setting [14] is: Clear Cell Renal Cell Carcinoma, post- vs pre-treatment unpaired biopsies.
Setting [15] is: Clear Cell Renal Cell Carcinoma, unpaired, RNA-seq log2-transformed normalized counts.
Setting [16] is: Melanoma, Post minus Pre, unpaired biopsies, log2-transformed counts.
[17] abbreviates: Melanoma, post- vs pre-treatment unpaired biopsies.
[18] abbreviates: Melanoma, unpaired, RNA-seq log2-transformed normalized counts.

Regarding `C=C1C[C@@H]2[C@H](CC[C@]3(C)C(=O)CC[C@@H]23)[C@@]2(C)C=CC(=O)C=C12` [exemestane], in the assay on CD46 expression [1], the “CD46 expression, Post-Treatment Biopsy” value is 6.37 and the “CD46 expression, Pre-Treatment Biopsy” value came out at 6.41. Also, in the assay with CD46 expression [1] (Breast Cancer, paired biopsies), the “CD46 expression diff (post minus pre)” value was −0.04 and the “Percent Change in CD46 expression” value worked out at 0.5%. Besides, in the assay with CD46 expression [2] (setting [4]), the CD46 expression diff is given as 0.11. Also, in the assay on CD46 expression [2] (setting [5]), the “CD46 expression Percentage change” value stood at 1.8%. For the same compound, the “CD46 expression Post” value in the assay with CD46 expression [2] (setting [6]) was found to be 6.50.
Turning to bevacizumab, the “CD46 expression diff (post minus pre)” value in the assay on CD46 expression [3] (Colorectal Cancer) is listed as 0.08; in the assay with CD46 expression [3] (Glioblastoma), 0.06; in the assay on CD46 expression [3] (Ovarian Cancer) it was −0.11. In addition, the results for the “Percent Change in CD46 expression” value with CD46 expression [3] (Colorectal Cancer), in the assay on CD46 expression [3] (Glioblastoma) and in the assay with CD46 expression [3] (Ovarian Cancer) were 1.3%, 1.3% and −1.9%, respectively. Moreover, the “CD46 expression, Post-Treatment Biopsy” value with CD46 expression [3] (Colorectal Cancer) is 6.33; with CD46 expression [3] (Glioblastoma) it was 4.64; with CD46 expression [3] (Ovarian Cancer), 5.54. Further, the figures for the “CD46 expression, Pre-Treatment Biopsy” value in the assay on CD46 expression [3] (Colorectal Cancer), in the assay with CD46 expression [3] (Glioblastoma) and with CD46 expression [3] (Ovarian Cancer) were 6.25, 4.58 and 5.65, respectively. Moreover, the CD46 expression diff in the assay on CD46 expression [2] (setting [4]) is 0.33; in the assay with CD46 expression [2] (setting [7]), 0.11; in the assay with CD46 expression [2] (Endometrial Cancer, post minus pre, unpaired biopsies), −0.26; in the assay with CD46 expression [2] (Glioblastoma, Post minus Pre, unpaired biopsies, log2-transformed counts), −0.02; in the assay with CD46 expression [2] (setting [10]), −0.11; with CD46 expression [2] (Ovarian Cancer, Post minus Pre, unpaired biopsies, log2-transformed counts), 0.03. Also, the “CD46 expression Percentage change” value with CD46 expression [2] (setting [5]) is reported as 5.4%; with CD46 expression [2] (setting [8]), 1.7%; in the assay with CD46 expression [2] (Endometrial Cancer, post vs pre, unpaired biopsies), −4.4%; with CD46 expression [2] (Glioblastoma, post- vs pre-treatment unpaired biopsies), −0.4%; in the assay on CD46 expression [2] (setting [11]) it was −1.8%; in the assay with CD46 expression [2] (Ovarian Cancer, post- vs pre-treatment unpaired biopsies) it was 0.5%. Also, the “CD46 expression Post” value with CD46 expression [2] (setting [6]) came out at 6.34; in the assay with CD46 expression [2] (setting [9]), 6.53; with CD46 expression [2] (Endometrial Cancer, log2-transformed RNA-seq counts), 5.56; in the assay with CD46 expression [2] (Glioblastoma, unpaired, RNA-seq log2-transformed normalized counts), 4.79; with CD46 expression [2] (setting [12]), 6.25; in the assay on CD46 expression [2] (Ovarian Cancer, unpaired, RNA-seq log2-transformed normalized counts), 5.75. For the same compound, the “CD46 expression Pre” value in the assay with CD46 expression [2] (Endometrial Cancer, pre-treatment biopsies, log2-transformed RNA-seq counts) was 5.81.
For durvalumab, in the assay with CD46 expression [3] (Non-Small Cell Lung Cancer), the “CD46 expression diff (post minus pre)” value was 0.00; the “Percent Change in CD46 expression” value is 0.0%; the “CD46 expression, Post-Treatment Biopsy” value is 5.95; the “CD46 expression, Pre-Treatment Biopsy” value is 5.95. In the assay with CD46 expression [2] (setting [10]), the CD46 expression diff was −0.03. The “CD46 expression Percentage change” value with CD46 expression [2] (setting [11]) is −0.5%. Further, the “CD46 expression Post” value with CD46 expression [2] (setting [12]) was 6.04.
As for ipilimumab, in the assay on CD46 expression [3] (Melanoma), the “CD46 expression diff (post minus pre)” value was −0.06; the “Percent Change in CD46 expression” value is −1.1%; the “CD46 expression, Post-Treatment Biopsy” value worked out at 5.26; the “CD46 expression, Pre-Treatment Biopsy” value is reported as 5.31. Also, the CD46 expression diff in the assay with CD46 expression [2] (setting [13]) is listed as −0.08. Besides, in the assay on CD46 expression [2] (setting [14]), the “CD46 expression Percentage change” value is −1.4%. The “CD46 expression Post” value with CD46 expression [2] (setting [15]) was found to be 5.48. The CD46 expression diff in the assay with CD46 expression [2] (setting [16]) is given as −0.06. Also, the “CD46 expression Percentage change” value with CD46 expression [2] (setting [17]) is given as −1.1%. Moreover, the “CD46 expression Post” value in the assay with CD46 expression [2] (setting [18]) is recorded as 5.30.
As to nivolumab, in the assay on CD46 expression [3] (Melanoma), the “CD46 expression diff (post minus pre)” value was −0.04. In addition, the “Percent Change in CD46 expression” value with CD46 expression [3] (Melanoma) is given as −0.7%. Besides, the “CD46 expression, Post-Treatment Biopsy” value with CD46 expression [3] (Melanoma) was 5.26. For the same compound, the “CD46 expression, Pre-Treatment Biopsy” value in the assay on CD46 expression [3] (Melanoma) was 5.29. In addition, the CD46 expression diff in the assay on CD46 expression [2] (setting [13]) is on record as −0.06; with CD46 expression [2] (setting [16]), −0.02; with CD46 expression [2] (setting [10]), −0.09. The “CD46 expression Percentage change” value was −1.1% in the assay with CD46 expression [2] (setting [14]), −0.5% in the assay on CD46 expression [2] (setting [17]) and −1.5% in the assay on CD46 expression [2] (setting [11]). The “CD46 expression Post” value in the assay with CD46 expression [2] (setting [15]) amounted to 5.50; with CD46 expression [2] (setting [18]), 5.31; with CD46 expression [2] (setting [12]) it was 6.11.
In the case of panitumumab, in the assay with CD46 expression [3] (Colorectal Cancer), the “CD46 expression diff (post minus pre)” value was −0.10; the “Percent Change in CD46 expression” value was −1.4%; the “CD46 expression, Post-Treatment Biopsy” value turned out to be 6.62; the “CD46 expression, Pre-Treatment Biopsy” value is given as 6.71. In addition, in the assay on CD46 expression [2] (setting [7]), the CD46 expression diff was determined as 0.28. In the assay on CD46 expression [2] (setting [8]), the “CD46 expression Percentage change” value was found to be 4.4%. Further, in the assay on CD46 expression [2] (setting [9]), the “CD46 expression Post” value came out at 6.64.
pembrolizumab: the entries for the “CD46 expression diff (post minus pre)” value in the assay on CD46 expression [3] (Breast Cancer), with CD46 expression [3] (Melanoma) and in the assay with CD46 expression [3] (Non-Small Cell Lung Cancer) were −0.11, 0.03 and −0.24, respectively. The “Percent Change in CD46 expression” value in the assay with CD46 expression [3] (Breast Cancer) is listed as −1.7%; with CD46 expression [3] (Melanoma), 0.6%; in the assay with CD46 expression [3] (Non-Small Cell Lung Cancer) it was −3.8%. For the same compound, the “CD46 expression, Pre-Treatment Biopsy” value amounted to 6.28 with CD46 expression [3] (Breast Cancer), 5.22 in the assay with CD46 expression [3] (Melanoma) and 6.23 in the assay with CD46 expression [3] (Non-Small Cell Lung Cancer). Moreover, the “CD46 expression, Post-Treatment Biopsy” value with CD46 expression [3] (Melanoma) was found to be 5.25; in the assay with CD46 expression [3] (Non-Small Cell Lung Cancer), 6.00. The CD46 expression diff with CD46 expression [2] (Bladder Cancer, Post minus Pre, unpaired biopsies, log2-transformed counts) was 0.06; in the assay on CD46 expression [2] (setting [4]), −0.13; with CD46 expression [2] (setting [7]), 0.30; with CD46 expression [2] (Esophageal Cancer, Post minus Pre, unpaired biopsies, log2-transformed counts), 0.09; with CD46 expression [2] (Head and Neck Squamous Cell Carcinoma, Post minus Pre, unpaired biopsies, log2-transformed counts), 0.17; in the assay on CD46 expression [2] (setting [16]), 0.00. Also, the CD46 expression diff in the assay on CD46 expression [2] (setting [10]) is on record as −0.05. Further, the “CD46 expression Percentage change” value with CD46 expression [2] (Bladder Cancer, post- vs pre-treatment unpaired biopsies) is listed as 0.9%; with CD46 expression [2] (setting [5]) it was −2.2%; in the assay on CD46 expression [2] (setting [8]), 4.8%; with CD46 expression [2] (Esophageal Cancer, post- vs pre-treatment unpaired biopsies), 1.4%; in the assay with CD46 expression [2] (Head and Neck Squamous Cell Carcinoma, post- vs pre-treatment unpaired biopsies) it was 3.1%; with CD46 expression [2] (setting [17]), 0.0%. In addition, the “CD46 expression Percentage change” value with CD46 expression [2] (setting [11]) is recorded as −0.7%. Besides, the “CD46 expression Post” value with CD46 expression [2] (Bladder Cancer, unpaired, RNA-seq log2-transformed normalized counts) came out at 6.18; with CD46 expression [2] (setting [6]), 5.95; with CD46 expression [2] (setting [9]), 6.50; with CD46 expression [2] (Esophageal Cancer, unpaired, RNA-seq log2-transformed normalized counts) it was 6.01; in the assay on CD46 expression [2] (Head and Neck Squamous Cell Carcinoma, unpaired, RNA-seq log2-transformed normalized counts), 5.76; in the assay with CD46 expression [2] (setting [18]) it was 5.30.
